Blank lines part the entries; values can stand above or below the molecule they belong to.
Assays:
Format in all cases: physicochemical
[1] = Stability evaluation on exposure to heating, light or humidifying stimulus (HPLC)
Method: The Form-I crystal of the p-TsOH salt of the compound A and the free form crystal of the compound A prepared according to the method described in PATENT DOCUMENT 1 were exposed to heating stimulus (allowed to stand at 60°C for 24 hours), light stimulus (light source: D65 lamp, total intensity: 1.2 million lx·hr), or humidifying stimulus (allowed to stand at 30°C and a relative humidity of 90% for 24 hours), and the stability thereof was evaluated based on the percentage (%) of the area of the peak of the free form of the compound A or the Form-I crystal of the p-TsOH salt of the compound A in the observed peaks in HPLC with and without exposure to the stimuli.

[2] = Stability test of Form-I crystal when mixed with excipient (40°C, 75% relative humidity, open system; HPLC and visual inspection); settings: for observation of the color of the crystal: crystal only and all excipient mixtures, visual inspection
Method: The Form-I crystal of the p-TsOH salt of the compound A was mixed with each of various excipients at a mass ratio of 1:1 using a mortar, was allowed to stand in a thermo-hygrostat at a temperature of 40°C and a relative humidity of 75% in an open system for 2 weeks or 1 month, and then evaluated for the presence/absence of decomposition using HPLC and checked for color change by visual inspection. The stability of only the Form-I crystal of the p-TsOH salt of the compound A was also evaluated as a reference. The conditions for HPLC are as follows. • Instrument: SHIMADZU LC-2010 CHT • Column: COSMOSIL 3C18-MSII 4.6×100 mm • Column temperature: 40°C • Mobile phase: Liquid A; MeCN/H2O/MsOH = 600/400/1 Liquid B: MeCN/H2O/MsOH = 900/100/1 • Gradient: 0-8 min; A = 100% • 8-10 min; A to B • 10-20 min; B = 100% • 20-21 min; B to A • Flow rate: 0.5 mL/min • Wavelength: 230 nm
The results of the percentage (%) of the area of the peak of the Form-I crystal of the p-TsOH salt of the compound A in the observed peaks in HPLC and observation of the color of the crystal are shown in Table 3. According to Table 3, no decomposition of the Form-I crystal of the p-TsOH salt of the compound A was observed under the conditions of mixing with any of the excipients, and no color change occurred. […]

[3] = Relative stability between crystals: six forms stirred together in DMF/toluene (X-ray powder diffraction); settings: Form-I, III, IV, V, VI, VII, 100 mg each, in DMF/toluene 1:9, stirred at 20°C or 55°C
Method: The crystals of the p-TsOH salt of the compound A prepared in Examples 1 to 3 and Comparative Examples 1 to 3 were each weighed in 100 mg, a total of 600 mg was added to 30 mL of a mixed solvent of DMF and toluene having a volume ratio of 1:9, and the mixture was stirred at 20°C or 55°C. After 3, 4, 7, and 8 days from the start of stirring at 20°C, and after 3 and 4 days from the start of stirring at 55°C, the crystal form of the p-TsOH salt of the compound A in the mixed solution was measured by X-ray powder diffraction.

[4] = Stability test of Form-III crystal at 40°C and 75% relative humidity; settings: relative humidity 75%
Method: About 10 mg of the Form-III crystal of the p-TsOH salt of the compound A obtained in Example 2 was allowed to stand at 40°C and a relative humidity of 75% for 7 days or longer, and as a result, the Form-III crystal of the p-TsOH salt of the compound A was able to exist stably for 7 days or longer.

[5] = Crystal form transition on heating (relative stability of crystal forms)
Method: The Form-V crystal of the p-TsOH salt of the compound A obtained in Comparative Example 1 was heated at 205°C for 10 minutes, and as a result, a Form-III crystal of the p-TsOH salt of the compound A was obtained.
The Form-VI crystal of the p-TsOH salt of the compound A obtained in Comparative Example 2 was heated at 190°C for 10 minutes, and as a result, a Form-III crystal of the p-TsOH salt of the compound A was obtained.

[6] = Differential thermal analysis and thermogravimetric analysis (TG/DTA); settings: heating rate 10.0°C/min, nitrogen
Method: TG/DTA in Examples 1 to 11 was measured by TG-8120 (manufactured by Rigaku Corporation) (cell: alumina (open), gas: nitrogen, heating rate: 10.0°C/min, hold temperature: 300°C, hold time: 0 min) unless otherwise specified.
The results of differential scanning calorimetry (DSC) of the Form-I crystal of the p-TsOH salt of the compound A are shown in FIG. 2. The results of thermophysical property measurement by differential thermal analysis (DTA) and thermogravimetric analysis (TGA) of the Form-I crystal of the p-TsOH salt of the compound A are shown in FIG. 3.

[7] = Relative stability of Form-I to Form-III crystals: pairs stirred in acetone (X-ray powder diffraction); settings: pairs at mass ratio 1:1 in acetone, 30°C, 42 hours
Method: The Form-I crystal and the Form-II crystal of the p-TsOH salt of the compound A, the Form-I crystal and the Form-III crystal of the p-TsOH salt of the compound A, or the Form-II crystal and the Form-III crystal of the p-TsOH salt of the compound A were added to acetone at a mass ratio of 1:1, and the mixture was stirred at 30°C for 42 hours. Then, the crystal form of the p-TsOH salt of the compound A in the solution was examined by X-ray powder diffraction, and as a result, under all the three conditions, each of the crystals of the p-TsOH salt of the compound A in the solution transitioned to a Form-I crystal.

[8] = Stability of Form-I crystal in various solvents (X-ray powder diffraction); settings: pulverized crystal in methanol, ethyl acetate or methyl ethyl ketone, 40°C, 115 hours
Method: In order to facilitate the transition of the crystal form by a solvent, the Form-I crystal of the p-TsOH salt of the compound A was pulverized in a mortar. The obtained pulverized material was added to methanol, ethyl acetate, or methyl ethyl ketone, and the mixture was stirred at 40°C for 115 hours. After stirring, the crystal form of the p-TsOH salt of the compound A in the solution was examined by X-ray powder diffraction, and the results are shown in FIG. 28.

[9] = Thermal stability of Form-II crystal (X-ray powder diffraction while heating and cooling); settings: heated to 30°C, 150°C, 200°C, then cooled to 150°C and 30°C
Method: Therefore, for the Form-II crystal of the p-TsOH salt of the compound A, the crystal form was examined by X-ray powder diffraction while increasing the temperature to 30°C, 150°C, and 200°C, and then the crystal form was further examined by X-ray powder diffraction while cooling to 150°C and 30°C.

[10] = Stability of crystal form on mechanical stimulus and water (X-ray powder diffraction); settings: pulverized, water-treated, stored at 30°C, relative humidity 90%, tableted (2,000 kgf × 30 min)
Method: X-ray powder diffraction measurement was performed for a crystal (pulverized) obtained by pulverizing the Form-I crystal of the p-TsOH salt of the compound A in a mortar, a crystal (water-treated) obtained by kneading the Form-I crystal of the p-TsOH salt of the compound A after adding water, a sample of the Form-I crystal of the p-TsOH salt of the compound A stored under a humidifying stimulus condition (30°C, relative humidity of 90%), and a sample obtained by tableting the Form-I crystal of the p-TsOH salt of the compound A (2,000 kgf × 30 min). The results are shown in FIG. 24 together with the results of the Form-I crystal of the p-TsOH salt of the compound A not undergoing any treatment (untreated).

[11] = Crystal form transition on standing at 40°C and 75% relative humidity (relative stability); settings: 1/2 acetonitrile solvate crystal at 40°C, relative humidity 75%, 7 days gave Form-IV crystal
Method: About 10 mg of the 1/2 acetonitrile solvate crystal of the p-TsOH salt of the compound A obtained in Example 3 was allowed to stand at 40°C and a relative humidity of 75% for 7 days, and as a result, a Form-IV crystal of the p-TsOH salt of the compound A was obtained.

[12] = Heating stimulus: 60°C for 24 hours
[13] = Humidifying stimulus: 30°C, relative humidity 90%, 24 hours
[14] = Light stimulus: D65 lamp, total intensity 1.2 million lx·hr

percentage (%) of the area of the peak in the observed peaks in HPLC [1, 12]: 99.76%
percentage (%) of the area of the peak in the observed peaks in HPLC [1, 13]: 99.76%
percentage (%) of the area of the peak in the observed peaks in HPLC [1, 14]: 99.74%
percentage (%) of the area of the peak in the observed peaks in HPLC ([1]; No stimulus): 99.78%
SMILES: COCc1nc2c(C(=O)Nc3cccc(Cl)c3C)cc(NC(=O)c3ccccc3C(F)(F)F)cc2[nH]1 [Free form of compound A, N-(3-chloro-2-methylphenyl)-2-(methoxymethyl)-6-({[2-(trifluoromethyl)phenyl]carbonyl}amino)-1H-benzimidazole-4-carboxamide]

percentage (%) of the area of the peak in the observed peaks in HPLC [1, 12]: 99.69%
percentage (%) of the area of the peak in the observed peaks in HPLC [1, 13]: 99.68%
percentage (%) of the area of the peak in the observed peaks in HPLC [1, 14]: 99.72%
percentage (%) of the area of the peak in the observed peaks in HPLC ([1]; No stimulus): 99.70%
percentage (%) of the area of the peak of the Form-I crystal of the p-TsOH salt of the compound A in the observed peaks in HPLC ([2]; Crystal only, 1 month at 40°C, relative humidity 75%, open system): 99.68%
percentage (%) of the area of the peak of the Form-I crystal of the p-TsOH salt of the compound A in the observed peaks in HPLC ([2]; Crystal only, 2 weeks at 40°C, relative humidity 75%, open system): 99.70%
percentage (%) of the area of the peak of the Form-I crystal of the p-TsOH salt of the compound A in the observed peaks in HPLC ([2]; Crystal only, immediately after mixing): 99.71%
observation of the color of the crystal ([2]; 1 month at 40°C, relative humidity 75%): No color change under any conditions
observation of the color of the crystal ([2]; 2 weeks at 40°C, relative humidity 75%): No color change under any conditions
percentage (%) of the area of the peak of the Form-I crystal of the p-TsOH salt of the compound A in the observed peaks in HPLC ([2]; mixed 1:1 with Corn starch, 1 month at 40°C, relative humidity 75%): 99.66%
percentage (%) of the area of the peak of the Form-I crystal of the p-TsOH salt of the compound A in the observed peaks in HPLC ([2]; mixed 1:1 with Corn starch, 2 weeks at 40°C, relative humidity 75%): 99.66%
percentage (%) of the area of the peak of the Form-I crystal of the p-TsOH salt of the compound A in the observed peaks in HPLC ([2]; mixed 1:1 with Corn starch, immediately after mixing): 99.71%
percentage (%) of the area of the peak of the Form-I crystal of the p-TsOH salt of the compound A in the observed peaks in HPLC ([2]; mixed 1:1 with Crystalline cellulose, 1 month at 40°C, relative humidity 75%): 99.69%
percentage (%) of the area of the peak of the Form-I crystal of the p-TsOH salt of the compound A in the observed peaks in HPLC ([2]; mixed 1:1 with Crystalline cellulose, 2 weeks at 40°C, relative humidity 75%): 99.65%
percentage (%) of the area of the peak of the Form-I crystal of the p-TsOH salt of the compound A in the observed peaks in HPLC ([2]; mixed 1:1 with Crystalline cellulose, immediately after mixing): 99.73%
percentage (%) of the area of the peak of the Form-I crystal of the p-TsOH salt of the compound A in the observed peaks in HPLC ([2]; mixed 1:1 with D-Mannitol, 1 month at 40°C, relative humidity 75%): 99.71%
percentage (%) of the area of the peak of the Form-I crystal of the p-TsOH salt of the compound A in the observed peaks in HPLC ([2]; mixed 1:1 with D-Mannitol, 2 weeks at 40°C, relative humidity 75%): 99.70%
percentage (%) of the area of the peak of the Form-I crystal of the p-TsOH salt of the compound A in the observed peaks in HPLC ([2]; mixed 1:1 with D-Mannitol, immediately after mixing): 99.63%
percentage (%) of the area of the peak of the Form-I crystal of the p-TsOH salt of the compound A in the observed peaks in HPLC ([2]; mixed 1:1 with Lactose, 1 month at 40°C, relative humidity 75%): 99.58%
percentage (%) of the area of the peak of the Form-I crystal of the p-TsOH salt of the compound A in the observed peaks in HPLC ([2]; mixed 1:1 with Lactose, 2 weeks at 40°C, relative humidity 75%): 99.74%
percentage (%) of the area of the peak of the Form-I crystal of the p-TsOH salt of the compound A in the observed peaks in HPLC ([2]; mixed 1:1 with Lactose, immediately after mixing): 99.64%
most stable form among the crystals [3]: the most stable form
time for which the crystal was able to exist stably [4]: ≥ 7 days
relative stability of crystal forms ([5]; Form-V crystal heated at 205°C for 10 minutes gave Form-III crystal): higher stability than the Form-V crystal
most stable form among Form-I, Form-II and Form-III crystals [7]: the most stable form
stability against heat [9]: rather stable against heat
SMILES: COCc1nc2c(C(=O)Nc3cccc(Cl)c3C)cc(NC(=O)c3ccccc3C(F)(F)F)cc2[nH]1.Cc1ccc(S(=O)(=O)O)cc1 [N-(3-chloro-2-methylphenyl)-2-(methoxymethyl)-6-({[2-(trifluoromethyl)phenyl]carbonyl}amino)-1H-benzimidazole-4-carboxamide 4-methylbenzenesulfonate]
change in the color of the crystal ([1]; after exposure to heating, light or humidifying stimulus): no change in the color of the crystal was observed
relative stability of crystal forms ([5]; Form-VI crystal heated at 190°C for 10 minutes gave Form-III crystal): higher stability than the Form-VI crystal
thermal stability in DTA/TGA [6]: stable without any weight change or endothermic or exothermic heat until decomposition at 200 °C or higher
change in crystal form [8]: no change in crystal form was observed under any of the conditions
change in crystal form [10]: no change in crystal form was observed under any of the conditions
relative stability of crystal forms [11]: higher stability than the 1/2 acetonitrile solvate crystal of the p-TsOH salt of the compound A obtained in Example 3

From patent EP4810486A1, “CRYSTAL OF HETEROCYCLIC DERIVATIVE” (Nippon Shinyaku Co., Ltd., priority 2023, dated 2025)
